Assay results published in US12564600B2, “System for enhancing therapeutic compliance of the anti-cancer compound E7766” (Eisai R&D Management Co., Ltd., priority 2019, dated 2026).
“Also recorded” adds a separate entry of the source.

Tests used:
[1] = Pharmacokinetics and excretion in bile duct-cannulated dog, single IV dose; format: in vivo, beagle dogs; conditions: IV 0.075 mg/kg, up to 48 h, Mean SD
Experimental: Male bile duct-cannulated beagle dogs or Sprague Dawley rats (n=3) were given a single intravenous (IV) dose of Compound 1. Plasma, urine and bile samples were collected from the dogs, and blood, urine, bile and feces samples were collected from rats up to 48 hours post-dose. Blood samples were kept on wet ice after collection until centrifuged for separation of plasma. Urine samples were collected at intervals 0 to 4, 4 to 8, 8 to 24, and 24 to 48 hours post-dose into collection tubes on wet ice. Bile samples were collected at intervals 0 to 4, 4 to 8, 8 to 24, and 24 to 48 hours post-dose into collection tubes cooled via an ice pack. Feces samples for rats were collected over 0 to 24 hour interval. All samples were transferred into properly labeled tubes and stored at −70° C. until pending shipment to the bioanalytical facility. All samples were analyzed using LC-MS/MS and the pharmacokinetic parameters of Compound 1 were determined with Phoenix WinNonlin using non-compartmental analysis.
Data are shown as Mean SD. NC indicates Not Collected.

MRP2 = target: T1, MRP2 (Homo sapiens, UniProt Q92887); test: Transport in MRP2 expressing membrane vesicles; format: in vitro ADME
T1 construct: purchased Corning
Experimental: To study the interaction of Compound 1 with hepatic efflux (ABC) transporters, TransportoCells™ membrane vesicles expressing BCRP, BSEP, MRP2, and control vector vesicles were pre-incubation with vesicle uptake buffer (47 mmol L-1 MOPs-Tris, 65 mmol L-1 KCl, 7 mmol L-1 MgCl2, pH 7.4 for BCRP; 47 mmol L-1 MOPs-Tris, 2.5 mmol L-1 GSH, 65 mmol L-1 KCl, 7 mmol L-1 MgCl2, pH 7.4 for MRP2; and 10 mmol L-1 HEPES-Tris, 100 mmol L-1 KNO3, 12.5 mmol L-1 Mg(NO3)2, and 50 mmol L-1 sucrose, pH 7.4 for BSEP) at 37° C. for 10 minutes. The transport was initiated by adding of pre-warmed 25 mmol/L MgATP, 3 μmol L-1 of Compound 1 in presence or absence of inhibitors (3 μmol L-1 of Novobioncin for BCRP, 100 μmol L-1 of MK-571 for MRP2, and 20 μmol L-1 of Ketoconazole for BSEP). The transport was terminated at designated time by adding 200 μL ice-cold vesicle uptake buffer. The complete content was then rapidly filtrated using multi-screen HTS vacuum manifold, followed by 5 washes and filtrations. The plate was allowed to dry completely and then placed onto a 96-well receiver plate. A 50 μL of elute solution (75% methanol containing the internal standard) was added into each assay well followed by centrifugation at 2000 rpm for 5 minutes. […] The yield samples from two centrifugation were combined and analyzed by LC-MS/MS. […]

[2] = system: sandwich-cultured human hepatocytes (SCHH); test: Hepatic uptake in sandwich-cultured human hepatocytes; format: in vitro ADME
Experimental: Hepatic uptake and hepatobiliary disposition of Compound 1 was evaluated in sandwich-cultured human hepatocytes (SCHH) prepared from one donor. For assessing hepatic uptake, Compound 1 was incubated for 1, 5, and 10 minutes and the solutions were collected and frozen at −80° C. until process for bioanalysis. The wells were then washed three times with ice cold Plus (+) Buffer and were frozen at −80° C. until processed for bioanalysis. Biliary excretion of compound 1 was assessed in SCHH utilizing B-CLEAR® Technology. Briefly, cell culture medium was removed, and hepatocytes were washed twice with warm Plus (+) or Minus (−) Buffer to maintain or disrupt tight junctions, respectively. The wash solutions were removed and replaced with fresh Plus (+) Buffer or Minus (−) Buffer. The hepatocytes were conditioned for 10 minutes at 37° C. The conditioning solutions were removed and replaced with dosing solutions for Compound 1. Following a 20 minute incubation, the solutions were collected and frozen at −80° C. until process for bioanalysis. The wells were then washed three times with ice cold Plus (+) Buffer. The plates were frozen at −80° C. until processed for bioanalysis. The biliary excretion index (BEI) was calculated according to following equation: […]

[3] = Pharmacokinetics in wild-type mice with or without rifampin co-dose; format: in vivo, wild-type FVB male mice
Experimental: Age-matched Oatp1a/1b cluster-knockout, OATP1B1- or OATP1B3-knockin mice humanized on the Oatp1a/1b-knockout background, and wild-type FVB male mice were purchased from Taconic Biosciences (Hudson, N.Y., USA). Mice were between 8 and 10 weeks of age (22-34 g) at the time of study. Compound 1 was administered at a dose of 0.5 mg/kg coadministered with either vehicle or rifampin (30 mg/kg). Blood and liver samples were collected at 0.083, 0.25, 0.5, 1, 1.5, 3, 6 hours. Plasma was isolated from blood samples by centrifugation. All samples were stored at −80° C. until bioanalysis.
Compound 1 was dosed via intravenous administration to WT, humanized, and KO mice. Blood, urine, and feces were collected from the animals over 6 hours. Blood spots were collected and expelled FTA™ DMPK-B DBS Card (GE Healthcare, Life Sciences, Whatman™) within the appropriate sample circle. Pharmacokinetics of Compound 1 in WT animals was also assessed after co-administration with rifampin. Liver samples were also collected from WT animals and frozen until analysis. All samples were analyzed using LC-MS/MS and the pharmacokinetics parameters of Compound 1 were determined with Phoenix WinNonlin using non-compartmental analysis.
FIG. 2A through 2C show an in vivo PK profile and elimination of Compound 1 with and without a co-dose of the Oatp/OATP inhibitor Rifampin in different mouse models.

T1 sequence (Q92887 whole entry): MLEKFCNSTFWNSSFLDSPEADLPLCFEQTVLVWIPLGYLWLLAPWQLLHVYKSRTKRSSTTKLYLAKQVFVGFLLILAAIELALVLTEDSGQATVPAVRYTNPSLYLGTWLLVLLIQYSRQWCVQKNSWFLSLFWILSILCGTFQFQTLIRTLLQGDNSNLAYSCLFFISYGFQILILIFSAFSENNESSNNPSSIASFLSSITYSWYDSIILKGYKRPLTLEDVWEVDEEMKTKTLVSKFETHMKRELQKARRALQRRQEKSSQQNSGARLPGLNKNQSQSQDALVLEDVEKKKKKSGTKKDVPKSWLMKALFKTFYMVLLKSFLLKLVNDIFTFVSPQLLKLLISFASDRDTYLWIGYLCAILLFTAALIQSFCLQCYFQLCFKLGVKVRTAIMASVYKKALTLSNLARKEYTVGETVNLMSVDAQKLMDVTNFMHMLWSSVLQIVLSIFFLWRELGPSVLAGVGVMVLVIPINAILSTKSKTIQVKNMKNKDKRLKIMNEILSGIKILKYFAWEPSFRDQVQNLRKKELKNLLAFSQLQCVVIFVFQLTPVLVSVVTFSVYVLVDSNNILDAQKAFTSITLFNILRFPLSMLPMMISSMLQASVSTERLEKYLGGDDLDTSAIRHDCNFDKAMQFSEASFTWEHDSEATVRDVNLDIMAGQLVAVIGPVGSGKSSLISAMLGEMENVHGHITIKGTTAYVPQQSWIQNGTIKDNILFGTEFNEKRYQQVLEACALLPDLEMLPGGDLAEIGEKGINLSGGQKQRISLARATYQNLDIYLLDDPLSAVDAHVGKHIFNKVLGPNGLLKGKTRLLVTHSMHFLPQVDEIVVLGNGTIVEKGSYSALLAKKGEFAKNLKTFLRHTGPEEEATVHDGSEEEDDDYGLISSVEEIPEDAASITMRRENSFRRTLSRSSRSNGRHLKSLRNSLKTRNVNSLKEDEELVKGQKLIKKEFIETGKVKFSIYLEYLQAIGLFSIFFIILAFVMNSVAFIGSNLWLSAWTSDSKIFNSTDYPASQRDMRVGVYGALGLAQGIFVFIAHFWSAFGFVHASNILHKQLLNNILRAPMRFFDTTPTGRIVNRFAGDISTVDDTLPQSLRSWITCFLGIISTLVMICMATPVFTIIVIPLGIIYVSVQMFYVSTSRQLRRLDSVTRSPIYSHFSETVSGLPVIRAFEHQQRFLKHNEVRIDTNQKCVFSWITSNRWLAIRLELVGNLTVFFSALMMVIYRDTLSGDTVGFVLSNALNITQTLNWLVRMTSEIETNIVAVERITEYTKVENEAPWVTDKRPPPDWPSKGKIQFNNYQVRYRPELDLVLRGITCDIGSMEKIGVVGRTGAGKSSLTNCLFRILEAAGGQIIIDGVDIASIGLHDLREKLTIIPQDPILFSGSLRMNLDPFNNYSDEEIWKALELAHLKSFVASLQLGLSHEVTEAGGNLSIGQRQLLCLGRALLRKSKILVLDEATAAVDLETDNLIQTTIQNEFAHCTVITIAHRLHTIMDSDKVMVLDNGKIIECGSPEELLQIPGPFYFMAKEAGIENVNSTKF

- concentration at which hepatic uptake is saturated ([2]; SCHH): > 1000 nM
- dose proportionality of hepatic uptake ([2]; SCHH, 0.3 to 1 μM, 1 to 5 minutes of exposure): approximately dose-proportional
- hepatic uptake at 4° C. relative to 37° C. ([2]; SCHH, incubation at 4° C.): < 7.7 % of 37 °C
- mechanism of uptake in human hepatocytes ([2]; human hepatocytes): temperature-dependent active uptake
- fold decrease of liver/plasma Kp with rifampin ([3]; male, FVB, mouse, liver and plasma, with rifampin 30 mg/kg co-dosed, wild type mice, IV, read-out: decrease of Kp (liver/plasma) in the presence of Rifampin): 5
- decrease of biliary excretion on co-dosing rifampin ([3]; mouse models of FIG. 2A-2C (wild type and OATP1Bs humanized), rifampin co-dose): 66-79%
- increase of Cmax in the presence of rifampin ([3]; wild type mice, IV): about 2 fold
- increase in plasma exposure in the presence of rifampin ([3]; wild-type mice, 0.5 mg/kg IV, rifampin 30 mg/kg): 5.4 fold
Compound: O=[P@]1(S)OC[C@H]2O[C@@H]3[C@H](F)[C@@H]2O[P@](=O)(S)OC[C@H]2O[C@H]([C@H](F)[C@@H]2O1)n1cnc2c(ncnc21)NC/C=C/CNc1ncnc2c1ncn23 [Compound 1]
- % Ae, bile [1]: 87.9 ± 30.5%
- substrate of biliary efflux transporter MRP2 (MRP2): sequential biliary efflux; also recorded: substrate
- inhibition of hepatocyte uptake by transporter inhibitors ([2]; human hepatocytes, Rifampin, tetraethylammonium): could be inhibited by Rifampin but not by tetraethylammonium
- liver exposure (AUC) in the presence vs absence of rifampin ([3]; wild-type mice, IV, rifampin co-administered): did not change significantly; also recorded: comparable
